Test results from ChEMBL document CHEMBL5038660, “Computational and Structure-Based Development of High Potent Cell-Active Covalent Inhibitor Targeting the Peptidyl-Prolyl Isomerase NIMA-Interacting-1 (Pin1)” (J Med Chem, 2022).
Activity calls are given as the source filed them. The rule behind the calls is not given here.

Columns and labels:
[1] = molecular target: T1, Peptidyl-prolyl cis-trans isomerase NIMA-interacting 1 (Homo sapiens, UniProt Q13526); assay: Displacement of 5-FITC-(Acp)-Bth-D-pThr-Pip-2-NaI-Q from N-terminal-GST-fused human Pin1 expressed in Escherichia coli BL21(DE3) at 20 to 50 uM incubated for 12 hrs by fluorescence polarization assay; details: dose 20-50 µM
[2] = molecular target: T1, Peptidyl-prolyl cis-trans isomerase NIMA-interacting 1; assay: Displacement of 5-FITC-(Acp)-Bth-D-pThr-Pip-2-NaI-Q from N-terminal-GST-fused human Pin1 expressed in Escherichia coli BL21(DE3) incubated for 12 hrs by fluorescence polarization assay
[3] = molecular target: T1, Peptidyl-prolyl cis-trans isomerase NIMA-interacting 1; assay: Ratio of test compound IC50 to ZL-Pin01 IC50 for N-terminal-GST-fused human Pin1 expressed in Escherichia coli BL21(DE3) by fluorescence polarization assay
MDA-MB-231 [4] = assay: Inhibition of colony formation in human MDA-MB-231 cells at 0.25 to 4 uM incubated for 12 days with 48 hrs fresh compound replenishment by crystal violet staining based analysis; format: functional, cell-based; details: dose 0.25-4 µM, time 12.0 day
[5] = molecular target: T1, Peptidyl-prolyl cis-trans isomerase NIMA-interacting 1; assay: Inhibition of Pin1 in human MDA-MB-231 cells assessed as reduction in cyclin D1 level at 5 to 10 uM by western blot analysis; format: cell-based; details: dose 5-10 µM
MDA-MB-231 [6] = assay: Downregulation of MCL-1 gene expression in PIN-1 knockout human MDA-MB-231 cells at 4 to 8 uM incubated for 24 hrs by qRT-PCR analysis; format: functional, cell-based; details: dose 4-8 µM
MDA-MB-468 [7] = assay: Antiproliferative activity against human MDA-MB-468 cells assessed as reduction in cell viability incubated for 8 days with 48 hrs fresh compound replenishment by CellTiter-Glo luminescent assay; format: functional, cell-based; details: time 8.0 day
[8] = molecular target: T1, Peptidyl-prolyl cis-trans isomerase NIMA-interacting 1; assay: Displacement of 5-FITC-(Acp)-Bth-D-pThr-Pip-2-NaI-Q from N-terminal-GST-fused human Pin1 expressed in Escherichia coli BL21(DE3) assessed as maximum rate of inactivation incubated for 12 hrs by fluorescence polarization assay
[9] = molecular target: T1, Peptidyl-prolyl cis-trans isomerase NIMA-interacting 1; assay: Inhibition of Pin1 in human MDA-MB-231 cells assessed as reduction in MCL-1 level at 5 to 10 uM by western blot analysis; format: cell-based; details: dose 5-10 µM
MDA-MB-231 [10] = assay: Downregulation of MCL-1 protein expression in human MDA-MB-231 cells transfected with PIN1 siRNA at 5 to 10 uM by western blot analysis; format: functional, cell-based; details: dose 5-10 µM
MDA-MB-231 [11] = assay: Antiproliferative activity against human MDA-MB-231 cells assessed as reduction in cell viability incubated for 3 days by CellTiter-Glo luminescent assay; format: functional, cell-based; details: MDA-MB-231, 72 h
[12] = molecular target: T1, Peptidyl-prolyl cis-trans isomerase NIMA-interacting 1; assay: Inhibition of Pin1 in human MDA-MB-231 cells assessed as reduction in CCND1 gene expression incubated for 24 hrs by qRT-PCR analysis; format: cell-based; details: dose 4-8 µM
Homo sapiens = species: Homo sapiens; assay: Displacement of 5-FITC-(Acp)-Bth-D-pThr-Pip-2-NaI-Q from human Pin1 C57A mutant expressed in Escherichia coli BL21(DE3) incubated for 12 hrs by fluorescence polarization assay
[13] = molecular target: T1, Peptidyl-prolyl cis-trans isomerase NIMA-interacting 1; assay: Inhibition of Pin1 in human MDA-MB-231 cells assessed as reduction in MCL-1 gene expression incubated for 24 hrs by qRT-PCR analysis; format: cell-based; details: dose 4-8 µM
[14] = test system: Peptidyl-prolyl cis-trans isomerase NIMA-interacting 1 (Homo sapiens), Q13526 [C113A]; assay: Displacement of 5-FITC-(Acp)-Bth-D-pThr-Pip-2-NaI-Q from human Pin1 C113A mutant expressed in Escherichia coli BL21(DE3) incubated for 12 hrs by fluorescence polarization assay
MDA-MB-231 [15] = assay: Downregulation of c-Myc protein expression in human MDA-MB-231 cells transfected with PIN1 siRNA at 5 to 10 uM by western blot analysis; format: functional, cell-based; details: dose 5-10 µM
MDA-MB-468 [16] = assay: Antiproliferative activity against human MDA-MB-468 cells assessed as reduction in cell viability incubated for 3 days by CellTiter-Glo luminescent assay; format: functional, cell-based; details: MDA-MB-468, 72 h
MDA-MB-468 [17] = assay: Inhibition of colony formation in human MDA-MB-468 cells at 0.25 to 4 uM incubated for 12 days with 48 hrs fresh compound replenishment by crystal violet staining based analysis; format: functional, cell-based; details: dose 0.25-4 µM, time 12.0 day
[18] = molecular target: T1, Peptidyl-prolyl cis-trans isomerase NIMA-interacting 1; assay: Inhibition of Pin1 in human MDA-MB-231 cells assessed as reduction in C-MYC gene expression incubated for 24 hrs by qRT-PCR analysis; format: cell-based; details: dose 4-8 µM
[19] = test system: Peptidyl-prolyl cis-trans isomerase NIMA-interacting 1 (Homo sapiens), Q13526 [C113A]; assay: Covalent binding affinity to N-terminal His6-tagged human Pin1 C113A mutant expressed in Escherichia coli BL21(DE3) at compound:protein ratio of 3:1 to 5:1 incubated for overnight by mass spectrometry
MDA-MB-231 [20] = assay: Downregulation of CCND1 gene expression in PIN-1 knockout human MDA-MB-231 cells at 4 to 8 uM incubated for 24 hrs by qRT-PCR analysis; format: functional, cell-based; details: dose 4-8 µM
MDA-MB-231 [21] = assay: Downregulation of cyclin D1 protein expression in human MDA-MB-231 cells transfected with PIN1 siRNA at 5 to 10 uM by western blot analysis; format: functional, cell-based; details: dose 5-10 µM
MDA-MB-231 [22] = assay: Downregulation of C-MYC gene expression in PIN-1 knockout human MDA-MB-231 cells at 4 to 8 uM incubated for 24 hrs by qRT-PCR analysis; format: functional, cell-based; details: dose 4-8 µM
[23] = molecular target: T1, Peptidyl-prolyl cis-trans isomerase NIMA-interacting 1; assay: Inhibition of Pin1 in human MDA-MB-231 cells assessed as induction of Pin1 degradation incubated for 16 hrs by immunoblot analysis; format: cell-based; details: dose 2.5-15 µM
[24] = molecular target: T1, Peptidyl-prolyl cis-trans isomerase NIMA-interacting 1; assay: Covalent binding affinity to N-terminal His6-tagged human Pin1 expressed in Escherichia coli BL21 (DE3) incubated for overnight by mass spectrometry
[25] = molecular target: T1, Peptidyl-prolyl cis-trans isomerase NIMA-interacting 1; assay: Covalent binding affinity to Cys113 residue of N-terminal His6-tagged human Pin1 expressed in Escherichia coli BL21 (DE3) incubated for overnight followed by tryptic digestion for 16 hrs by HPLC-nESI MS/MS scan analysis
[26] = molecular target: T1, Peptidyl-prolyl cis-trans isomerase NIMA-interacting 1; assay: Displacement of 5-FITC-(Acp)-Bth-D-pThr-Pip-2-NaI-Q from N-terminal-GST-fused human Pin1 expressed in Escherichia coli BL21(DE3) assessed as Kinact/Ki ratio incubated for 12 hrs by fluorescence polarization assay
[27] = molecular target: T1, Peptidyl-prolyl cis-trans isomerase NIMA-interacting 1; assay: Covalent binding affinity to N-terminal His6-tagged human Pin1 expressed in Escherichia coli BL21 (DE3) assessed as increase in 418.16 Da molecular weight incubated for overnight by mass spectrometry
[28] = molecular target: T1, Peptidyl-prolyl cis-trans isomerase NIMA-interacting 1; assay: Inhibition of Pin1 in human MDA-MB-231 cells assessed as reduction in c-Myc level at 5 to 10 uM by western blot analysis; format: cell-based; details: dose 5-10 µM
[29] = molecular target: T1, Peptidyl-prolyl cis-trans isomerase NIMA-interacting 1; assay: Inhibition of Pin1 in human MDA-MB-231 cells assessed as reduction in C-MYC gene expression at 8 to 16 uM incubated for 24 hrs by qRT-PCR analysis; format: cell-based; details: dose 8-16 µM
[30] = molecular target: T1, Peptidyl-prolyl cis-trans isomerase NIMA-interacting 1; assay: Inhibition of Pin1 in human MDA-MB-231 cells assessed as reduction in MCL-1 gene expression at 8 to 16 uM incubated for 24 hrs by qRT-PCR analysis; format: cell-based; details: dose 8-16 µM
[31] = molecular target: T1, Peptidyl-prolyl cis-trans isomerase NIMA-interacting 1; assay: Inhibition of Pin1 in human MDA-MB-231 cells assessed as reduction in CCND1 gene expression at 8 to 16 uM incubated for 24 hrs by qRT-PCR analysis; format: cell-based; details: dose 8-16 µM
MDA-MB-468 [32] = assay: Inhibition of colony formation in human MDA-MB-468 cells at 0.63 to 10 uM incubated for 12 days with 48 hrs fresh compound replenishment by crystal violet staining based analysis; format: functional, cell-based; details: dose 0.63-10 µM, time 12.0 day
[33] = molecular target: T1, Peptidyl-prolyl cis-trans isomerase NIMA-interacting 1; assay: Covalent binding affinity to N-terminal His6-tagged human Pin1 expressed in Escherichia coli BL21 (DE3) assessed as increase in 292.1 Da molecular weight incubated for overnight by mass spectrometry
MDA-MB-231 [34] = assay: Inhibition of colony formation in human MDA-MB-231 cells at 0.63 to 10 uM incubated for 12 days with 48 hrs fresh compound replenishment by crystal violet staining based analysis; format: functional, cell-based; details: dose 0.63-10 µM, time 12.0 day

## Cc1ccc(N2C(=O)CSC23CCN(C(=O)CCl)CC3)cc1
[1]
  inhibition: > 50%

## O=C(CCl)N1CCC2(CC1)SCC(=O)N2Cc1ccc(-c2ccc(C(F)(F)F)cc2)o1
[2]
  IC50: 720 nM
[3]
  Ratio IC50: 0.54

## O=C(CCl)N1CCC2(CC1)SCC(=O)N2CCc1ccc(-c2ccccc2)o1
[2]
  IC50: 1060 nM
[3]
  Ratio IC50: 0.8

## O=C(CCl)N1CCC2(CC1)SCC(=O)N2Cc1ccc(-c2ccc(-c3ccccc3)cc2)o1
[2]
  IC50: 1320 nM
[3]
  Ratio IC50: 1

## N#Cc1ccc(-c2ccc(CN3C(=O)CSC34CCN(C(=O)CCl)CC4)o2)cc1
[2]
  IC50: 440 nM
[3]
  Ratio IC50: 0.33

## CS(=O)(=O)c1ccc(-c2ccc(CN3C(=O)CSC34CCN(C(=O)CCl)CC4)o2)cc1
[2]
  IC50: 360 nM
[3]
  Ratio IC50: 0.27

## O=C(CCl)N1CCC2(CC1)SCC(=O)N2Cc1ccc(Cl)o1
[2]
  IC50: 560 nM
[3]
  Ratio IC50: 0.42

## O=C(CCl)N1CCC2(CC1)SCC(=O)N2Cc1ccc(-c2cccc3ccccc23)o1
MDA-MB-231 [4]
  inhibition: Active
[5]
  inhibition: Active
MDA-MB-231 [6]
  inhibition: inactive
MDA-MB-468 [7]
  Activity: Active
[8]
  Kinact: 0.058 min⁻¹
[2]
  IC50: 67 nM
[9]
  inhibition: Active
MDA-MB-231 [10]
  inhibition: inactive
MDA-MB-231 [11]
  IC50: 2800 nM
[12]
  inhibition: Dose-Dependent Effect
Homo sapiens
  inhibition: Active
[13]
  inhibition: Dose-Dependent Effect
[14]
  inhibition: inactive
MDA-MB-231 [15]
  inhibition: inactive
MDA-MB-468 [16]
  IC50: 1900 nM
MDA-MB-468 [17]
  inhibition: Active
[18]
  inhibition: Dose-Dependent Effect
[19]
  Activity: inactive
MDA-MB-231 [20]
  inhibition: inactive
MDA-MB-231 [21]
  inhibition: inactive
MDA-MB-231 [22]
  inhibition: inactive
[23]
  inhibition: Dose-Dependent Effect
[3]
  Ratio IC50: 0.05
[24]
  Activity: 100%
[25]
  Activity: Active
[26]
  Ratio: 27.1 M⁻¹ s⁻¹
[27]
  Activity: Active
[28]
  inhibition: Active

## Cc1cccc(N2C(=O)CSC23CCN(C(=O)CCl)CC3)c1
[1]
  inhibition: > 50%

## O=C(CCl)N1CCC2(CC1)SCC(=O)N2Cc1ccc(Br)o1
[2]
  IC50: 610 nM
[3]
  Ratio IC50: 0.46

## COc1ccc(-c2ccc(CN3C(=O)CSC34CCN(C(=O)CCl)CC4)o2)cc1
[2]
  IC50: 250 nM
[3]
  Ratio IC50: 0.19

## O=C(CCl)N1CCC2(CC1)SCC(=O)N2Cc1ccco1
[29]
  inhibition: Active
[30]
  inhibition: Active
[31]
  inhibition: Active
MDA-MB-468 [32]
  inhibition: Active
[2]
  IC50: 1330 nM
MDA-MB-231 [11]
  IC50: 12800 nM
[33]
  Activity: Active
MDA-MB-231 [34]
  inhibition: Active
MDA-MB-468 [16]
  IC50: 8600 nM
[1]
  inhibition: > 50%
[24]
  Activity: 100%
[25]
  Activity: Active

## O=C(CCl)N1CCC2(CC1)SCC(=O)N2c1ccc(Cl)cc1
[1]
  inhibition: > 50%

## O=C(CCl)N1CCC2(CC1)SCC(=O)N2Cc1ccc(-c2ccccc2)o1
[2]
  IC50: 260 nM
[3]
  Ratio IC50: 0.2

## O=C(CCl)N1CCC2(CC1)SCC(=O)N2Cc1ccccc1
[1]
  inhibition: > 50%

## CC(Cl)C(=O)N1CCC2(CC1)SCC(=O)N2Cc1ccc(-c2ccccc2)o1 (centres undefined)
[2]
  IC50: > 100000 nM
[3]
  Ratio IC50: > 10

## CC(=O)N1CCC2(CC1)SCC(=O)N2Cc1ccc(-c2cccc3ccccc23)o1
[2]
  IC50: > 100000 nM
[3]
  Ratio IC50: > 10

## Cc1ccc(-c2ccc(CN3C(=O)CSC34CCN(C(=O)CCl)CC4)o2)cc1
[2]
  IC50: 270 nM
[3]
  Ratio IC50: 0.2

## CC(=O)N1CCC2(CC1)SCC(=O)N2Cc1ccco1
[2]
  IC50: > 100000 nM
[3]
  Ratio IC50: > 10

## C=CC(=O)N1CCC2(CC1)SCC(=O)N2Cc1ccc(-c2ccccc2)o1
[2]
  IC50: > 100000 nM
[3]
  Ratio IC50: > 10

## O=C(CCl)N1CCC2(CC1)SCC(=O)N2Cc1ccc(-c2ccc3ccccc3c2)o1
[2]
  IC50: 380 nM
[3]
  Ratio IC50: 0.29
